Test results taken from the supplement of paper PMC13380429.

Experiments:
Settings in all cases: 72 h
Caco-2 [1] = assay: cell viability relative to DMSO; higher = less toxic
Calu-3 [2] = assay: as above
HepG2 [3] = assay: as above
U2OS [4] = assay: as above
Vero E6 [5] = assay: as above
Caco-2 [6] = assay: relative viability EC50 (midpoint between 100% and the lowest measured viability); higher = less toxic
Calu-3 [7] = assay: as above
HepG2 [8] = assay: as above
U2OS [9] = assay: as above
Vero E6 [10] = assay: as above
Caco-2 [11] = assay: drug sensitivity score (DSS) for viability; higher = more toxic; extreme values may be limits of the assay
Calu-3 [12] = assay: as above
HepG2 [13] = assay: as above
U2OS [14] = assay: as above
Vero E6 [15] = assay: as above

N#Cc1c[nH]c2c(C(=O)N3CCN(CCc4ccc(F)cc4)CC3)cccc12 [pruvanserin]
cell viability (Caco-2 [1]; 1 nM): 94.9% | cell viability (Caco-2 [1]; 10 nM): 95.3% | cell viability (Caco-2 [1]; 100 nM): 96.9% | cell viability (Caco-2 [1]; 1000 nM): 98.1% | cell viability (Caco-2 [1]; 10000 nM): 95.7% | cell viability (Calu-3 [2]; 1 nM): 91.8% | cell viability (Calu-3 [2]; 10 nM): 112% | cell viability (Calu-3 [2]; 100 nM): 91.4% | cell viability (Calu-3 [2]; 1000 nM): 112% | cell viability (Calu-3 [2]; 10000 nM): 101% | cell viability (HepG2 [3]; 1 nM): 103% | cell viability (HepG2 [3]; 10 nM): 110% | cell viability (HepG2 [3]; 100 nM): 117% | cell viability (HepG2 [3]; 1000 nM): 98.1% | cell viability (HepG2 [3]; 10000 nM): 99.3% | cell viability (U2OS [4]; 1 nM): 94% | cell viability (U2OS [4]; 10 nM): 98.4% | cell viability (U2OS [4]; 100 nM): 92.5% | cell viability (U2OS [4]; 1000 nM): 104% | cell viability (U2OS [4]; 10000 nM): 100% | cell viability (Vero E6 [5]; 1 nM): 105% | cell viability (Vero E6 [5]; 10 nM): 86.8% | cell viability (Vero E6 [5]; 100 nM): 102% | cell viability (Vero E6 [5]; 1000 nM): 95.2% | cell viability (Vero E6 [5]; 10000 nM): 98.4% | relative viability EC50 (Caco-2 [6]): > 10 µM | relative viability EC50 (Calu-3 [7]): > 10 µM | relative viability EC50 (HepG2 [8]): > 10 µM | relative viability EC50 (U2OS [9]): > 10 µM | relative viability EC50 (Vero E6 [10]): > 10 µM | drug sensitivity score (Caco-2 [11]): 0 | drug sensitivity score (Calu-3 [12]): 0 | drug sensitivity score (HepG2 [13]): 0 | drug sensitivity score (U2OS [14]): 0 | drug sensitivity score (Vero E6 [15]): 0

O=c1c(-c2ccc(O)cc2)coc2c([C@@H]3O[C@H](CO)[C@@H](O)[C@H](O)[C@H]3O)c(O)ccc12 [puerarin]
cell viability (Caco-2 [1]; 1 nM): 98.4% | cell viability (Caco-2 [1]; 10 nM): 99.8% | cell viability (Caco-2 [1]; 100 nM): 96% | cell viability (Caco-2 [1]; 1000 nM): 98% | cell viability (Caco-2 [1]; 10000 nM): 101% | cell viability (Calu-3 [2]; 1 nM): 89.3% | cell viability (Calu-3 [2]; 10 nM): 92.3% | cell viability (Calu-3 [2]; 100 nM): 97.5% | cell viability (Calu-3 [2]; 1000 nM): 89.6% | cell viability (Calu-3 [2]; 10000 nM): 95.6% | cell viability (HepG2 [3]; 1 nM): 94.4% | cell viability (HepG2 [3]; 10 nM): 102% | cell viability (HepG2 [3]; 100 nM): 94.8% | cell viability (HepG2 [3]; 1000 nM): 107% | cell viability (HepG2 [3]; 10000 nM): 98.2% | cell viability (U2OS [4]; 1 nM): 99.7% | cell viability (U2OS [4]; 10 nM): 95.2% | cell viability (U2OS [4]; 100 nM): 96% | cell viability (U2OS [4]; 1000 nM): 94.6% | cell viability (U2OS [4]; 10000 nM): 100% | cell viability (Vero E6 [5]; 1 nM): 99.7% | cell viability (Vero E6 [5]; 10 nM): 99.5% | cell viability (Vero E6 [5]; 100 nM): 99.9% | cell viability (Vero E6 [5]; 1000 nM): 107% | cell viability (Vero E6 [5]; 10000 nM): 103% | relative viability EC50 (Caco-2 [6]): > 10 µM | relative viability EC50 (Calu-3 [7]): > 10 µM | relative viability EC50 (HepG2 [8]): > 10 µM | relative viability EC50 (U2OS [9]): > 10 µM | relative viability EC50 (Vero E6 [10]): > 10 µM | drug sensitivity score (Caco-2 [11]): 0 | drug sensitivity score (Calu-3 [12]): 0 | drug sensitivity score (HepG2 [13]): 0 | drug sensitivity score (U2OS [14]): 0 | drug sensitivity score (Vero E6 [15]): 0

CCCN1CCC[C@@H]2Cc3nc(N)ncc3C[C@H]21 [quinelorane]
cell viability (Caco-2 [1]; 1 nM): 101% | cell viability (Caco-2 [1]; 10 nM): 92.9% | cell viability (Caco-2 [1]; 100 nM): 98.6% | cell viability (Caco-2 [1]; 1000 nM): 85.7% | cell viability (Caco-2 [1]; 10000 nM): 104% | cell viability (Calu-3 [2]; 1 nM): 102% | cell viability (Calu-3 [2]; 10 nM): 99% | cell viability (Calu-3 [2]; 100 nM): 93.2% | cell viability (Calu-3 [2]; 1000 nM): 103% | cell viability (Calu-3 [2]; 10000 nM): 105% | cell viability (HepG2 [3]; 1 nM): 95.9% | cell viability (HepG2 [3]; 10 nM): 94.1% | cell viability (HepG2 [3]; 100 nM): 97.6% | cell viability (HepG2 [3]; 1000 nM): 91.8% | cell viability (HepG2 [3]; 10000 nM): 96.4% | cell viability (U2OS [4]; 1 nM): 103% | cell viability (U2OS [4]; 10 nM): 105% | cell viability (U2OS [4]; 100 nM): 102% | cell viability (U2OS [4]; 1000 nM): 97.1% | cell viability (U2OS [4]; 10000 nM): 98.5% | cell viability (Vero E6 [5]; 1 nM): 102% | cell viability (Vero E6 [5]; 10 nM): 99.6% | cell viability (Vero E6 [5]; 100 nM): 101% | cell viability (Vero E6 [5]; 1000 nM): 93.2% | cell viability (Vero E6 [5]; 10000 nM): 99% | relative viability EC50 (Caco-2 [6]): > 10 µM | relative viability EC50 (Calu-3 [7]): > 10 µM | relative viability EC50 (HepG2 [8]): > 10 µM | relative viability EC50 (U2OS [9]): > 10 µM | relative viability EC50 (Vero E6 [10]): > 10 µM | drug sensitivity score (Caco-2 [11]): 0 | drug sensitivity score (Calu-3 [12]): 0 | drug sensitivity score (HepG2 [13]): 0 | drug sensitivity score (U2OS [14]): 0 | drug sensitivity score (Vero E6 [15]): 0
